Assays:
acetylcholinesterase [1] = biological target: T1, acetylcholinesterase (Rattus norvegicus, UniProt P37136); assay: in vitro inhibition of acetylcholinesterase assay (modified Ellman); assay type: biochemical, Male Wistar rat (corpora striata homogenate)
T1 construct: corpora striata dissected free, weighed and homogenized in 19 volumes; from tissue; host or cells: corpora striata of male Wistar rats, crude homogenate
T1 sequence (P37136 32-614): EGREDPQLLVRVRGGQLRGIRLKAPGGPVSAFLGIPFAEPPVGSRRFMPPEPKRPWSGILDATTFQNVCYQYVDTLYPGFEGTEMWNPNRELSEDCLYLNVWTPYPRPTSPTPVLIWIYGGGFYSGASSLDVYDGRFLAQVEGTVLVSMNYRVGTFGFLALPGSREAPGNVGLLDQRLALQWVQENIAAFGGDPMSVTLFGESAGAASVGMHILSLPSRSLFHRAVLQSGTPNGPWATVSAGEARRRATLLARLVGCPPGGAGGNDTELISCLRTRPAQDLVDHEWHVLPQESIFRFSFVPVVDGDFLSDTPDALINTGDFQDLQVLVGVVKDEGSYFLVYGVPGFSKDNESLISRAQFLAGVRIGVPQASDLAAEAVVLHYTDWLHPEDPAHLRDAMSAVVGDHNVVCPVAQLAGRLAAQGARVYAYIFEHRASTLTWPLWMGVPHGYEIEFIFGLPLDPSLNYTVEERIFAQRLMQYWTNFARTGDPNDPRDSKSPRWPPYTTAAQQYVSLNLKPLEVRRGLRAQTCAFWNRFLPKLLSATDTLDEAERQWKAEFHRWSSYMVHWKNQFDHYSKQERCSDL
Experimental: In this assay, a modification of a test described by G. L. Ellman, et al., Biochemical Pharmacology, 7, 88 (1961), the following reagents are prepared and employed:
1.0.05M Phosphate Buffer (pH 7.2)
A solution of monobasic sodium phosphate monohydrate (6.85 g) in distilled water (100 ml) is added to a solution of dibasic sodium phosphate heptahydrate (13.4 g) and distilled water (100 ml) until a pH of 7.2 was attained. The solution was diluted 1 to 10 with distilled water.
The 0.05M Phosphate Buffer (pH 7.2) was added to acetylthiocholine (198 mg) to a total volume of 100 ml, i.e., a quantity sufficient (gs) to 100 ml.
3. 5,5-Dithiobisnitrobenzoic acid in Buffer
The 0.05M Phosphate Buffer (pH 7.2) was added to 5,5-dithiobisnitrobenzoic acid to a total volume of 100 ml, i.e., a quantity sufficient (gs) to 100 ml.
4. Stock Solution of Drug
A 2 millimolar stock solution of the test drug is prepared in a quantity sufficient of either acetic acid or dimethyl sulfoxide to volume with 5,5-Dithiobisnitrobenzoic Acid in Buffer. Stock Solution of Drug is serially diluted (1:10) so that the final cuvette concentration is 10^-4 molar.
Male Wistar rates are decapitated, brains rapidly removed, corpora striata dissected free, weighed and homogenized in 19 volumes (approximately 7 mg protein/ml) of 0.05M phosphate Buffer (pH 7.2) using a Potter-Elvehjem homogenizer. A 25 μl aliquot of this suspension is added to 1 ml of the vehicle or various concentrations of the test drug and preincubated for 10 minutes at 37° C. Enzyme activity is measured with a Beckman DU-50 spectrophotometer with the following software and instrument settings:
1. Kinetics Soft-Pac™ Module #598273;
6. Cuvettes--2 ml cuvettes using auto 6-sampler;
7. Blank--1 for each substrate concentration;
8. Interval time--15 seconds (15 or 30 seconds for kinetics);
9. Total time--5 minutes (5 or 10 minutes for kinetics);
14 12. Slope--increasing;
13. Results--yes (gives slope); and
Reagents are added to the blank and sample cuvettes as follows:
1. Blank: 0.8 ml 5,5-Dithiobisnitrobenzoic Acid 0.8 ml Substrate in Buffer
2. Control: 0.8 ml 5,5-Dithiobisnitrobenzoic Acid/Enzyme 0.8 ml Substrate in Buffer
3. Drug: 0.8 ml 5,5-Dithiobisnitrobenzoic Acid/Drug/Enzyme 0.8 ml Substrate in Buffer
Blank values are determined for each run to control for non-enzymatic hydrolysis of substrate and these values are automatically subtracted by the Kindata program available on kinetics soft-pac module. This program also calculates the rate of absorbance change for each cuvette.
Substrate concentration is 10 millimolar diluted 1:2 in assay yielding final concentration of 5 millimolar. 5,5-Dithiobisnitrobenzoic acid concentration is 0.5 millimolar yielding 0.25 millimolar final concentration. [formula]
IC50 values are calculated from log-probit analysis

acetylcholinesterase [2] = assay: ex vivo inhibition acetylcholinesterase assay (modified Ellman); assay type: in vivo, male Wistar rats

Structure (SMILES) | IC50 (acetylcholinesterase [1]) [nM] | also measured
O=C(Oc1cccc(C2CCCN2Cc2ccncc2)c1)N1CCc2ccccc2C1 (stereo not shown) [3-[1-(4-Pyridinylmethyl)-2-pyrrolidinyl]phenyl 3,4-dihydro-2(1H)-isoquinoline carbamate hemifumarate] | 568 | 
CNC(=O)Oc1cccc(C2CCCN2CCN2CCOCC2)c1 (stereo not shown) [3-{1-[2-(4-Morpholinyl)ethyl]-2-pyrrolidinyl}phenyl methylcarbamate bis-fumarate] | 529 | 
CCN1CCCC1c1cccc(OC(=O)NC)c1 (stereo not shown) [3-[1-Ethyl-2-pyrrolidinyl]phenyl methylcarbamate] |  | Inhibition of Acetylcholinesterase Activity Percent Inhibition @ 1 hr (acetylcholinesterase [2]; 1 mg/kg per os, forebrain): 73%
CNC(=O)Oc1cccc(C2CCCN2Cc2cccnc2)c1 (stereo not shown) [3-[1-(3-Pyridinylmethyl)-2-pyrrolidinyl]phenyl methylcarbamate] |  | Inhibition of Acetylcholinesterase Activity Percent Inhibition @ 1 hr (acetylcholinesterase [2]; 10 mg/kg per os, forebrain): 51%
CNC(=O)Oc1cccc(C2CCC(=O)N2CCN2CCOCC2)c1 (stereo not shown) [3-{1-[2-(4-Morpholinyl)ethyl]-5-oxo-2-pyrrolidinyl}phenyl methylcarbamate] | 18700 | 
CNC(=O)Oc1cccc(C2CCCN2Cc2ccncc2)c1 (stereo not shown) [3-[1-(4-Pyridinylmethyl)-2-pyrrolidinyl]phenyl methylcarbamate] | 24.4 | Inhibition of Acetylcholinesterase Activity Percent Inhibition @ 1 hr (acetylcholinesterase [2]; 10 mg/kg per os, striatum): 80%
CNC(=O)Oc1ccc2c(c1)[C@]1(C)CCN(C)[C@@H]1N2C [physostigmine, reference compound] |  | Inhibition of Acetylcholinesterase Activity Percent Inhibition @ 1 hr (acetylcholinesterase [2]; 0.3 mg/kg intraperitoneal, forebrain): 27%
CNC(=O)Oc1cccc(C2CCCN2CCc2ccccc2)c1 (stereo not shown) [3-[1-(2-Phenylethyl)-2-pyrrolidinyl]phenyl methylcarbamate] |  | Inhibition of Acetylcholinesterase Activity Percent Inhibition @ 1 hr (acetylcholinesterase [2]; 10 mg/kg per os, forebrain): 25%
CNC(=O)Oc1cccc(C2CCC(=O)N2Cc2ccncc2)c1 (stereo not shown) [3-[1-((4-Pyridinyl)methyl)-5-oxo-2-pyrrolidinyl]phenyl methylcarbamate hemifumarate] | 1440 | 

Reference: patent publication US5405845A, “(Pyrrolidinyl)phenyl carbamate derivatives and use” (priority 1994, dated 1995)
